This is an account of results in patent US8394797B2, “Substituted pyrazole sigma receptor antagonists” (Laboratorios Del Dr. Esteve, S.A., priority 2004, dated 2013).

The target in one series is T1, σ1-receptor (Cavia porcellus, UniProt Q60492).
T1 construct: guinea pig brains were homogenized; from tissue; host or cells: guinea pig brain membranes
Description: Sigma-1 receptor binding, [3H](+)-pentazocine, brain membranes. The arrangement: species or system guinea pig. The note with it: for inhibition at 1 µM: 2.5 h, tested compound at 10^-6 M, [3H](+)-pentazocine 0.5 nM, read-out: binding sigma-1 (*) % of radioactively labeled compound replaced by the tested compound; for Ki: [3H](+)-pentazocine, guinea pig brain membranes, read-out: binding sigma-1 Ki.

The next series addresses T2, σ2-receptor (Mus musculus, UniProt Q8VD00).
T2 construct: brains from sigma receptor type I (sigma-1) knockout mice were homogenized; from tissue; host or cells: brain membranes of sigma-1 knockout mice
T2 sequence (Q8VD00 1-176): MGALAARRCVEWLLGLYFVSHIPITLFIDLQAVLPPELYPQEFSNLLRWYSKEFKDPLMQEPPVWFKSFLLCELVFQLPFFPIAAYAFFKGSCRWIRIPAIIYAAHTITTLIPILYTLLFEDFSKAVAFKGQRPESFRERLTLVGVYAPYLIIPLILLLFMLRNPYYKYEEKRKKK
Description: Sigma-2 receptor binding, [3H]-DTG, brains from sigma-1 knockout mice. The conditions noted are these: for inhibition at 1 µM: 2 h, tested compound at 10^-6 M, [3H]-DTG 3 nM, read-out: binding sigma-2 (*) % of radioactively labeled compound replaced by the tested compound; for Ki: [3H]-DTG, sigma-1 knockout mouse brain. The procedure: In brief, brains from sigma receptor type I (sigma-1) knockout mice were homogenized in a volume of 10 mL/g tissue net weight of ice-cold 10 mM Tris-HCl, pH 7.4, containing 320 mM sucrose (Tris-sucrose buffer) with a Potter-Elvehjem homogenizer (10 strokes at 500 r.p.m.) The homogenates were then centrifuged at 1000 g for 10 min at 4° C., and the supernatants were saved. The pellets were resuspended by vortexing in 2 mL/g ice-cold Tris-sucrose buffer and centrifuged again at 1000 g for 10 min. The combined 1000 g supernatants were centrifuged at 31000 g for 15 min at 4° C. The pellets were resuspended by vortexing in 3 mL/g 10 mM Tris-HCl, pH 7.4, and the suspension was kept at 25° C. for 15 min.
The assay tubes contained 10 μL of [^3H]-DTG (final concentration of 3 nM), 400 μL of the tissue suspension (5.3 mL/g in 50 mM Tris-HCl, pH 8.0) to a final assay volume of 0.5 mL. Non-specific binding was defined by addition of a final concentration of 1 μM haloperidol. […] Filters were washed with three times with 5 mL volumes of cold Tris-HCl buffer (10 mM, pH 8.0). Following addition of scintillation cocktail samples were allowed to equilibrate overnight.

Where a name gives a salt, the structure may show the parent alone.

T1 sequence (Q60492 whole entry): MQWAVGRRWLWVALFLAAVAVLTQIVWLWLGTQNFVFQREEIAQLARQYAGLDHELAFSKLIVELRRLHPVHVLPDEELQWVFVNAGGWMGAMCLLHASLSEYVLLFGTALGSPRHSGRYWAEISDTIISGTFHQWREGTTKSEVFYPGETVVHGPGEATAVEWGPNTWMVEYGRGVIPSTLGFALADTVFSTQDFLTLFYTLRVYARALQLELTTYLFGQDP

Turning to `C(/CN1CCc2ccccc2C1)=C1/CCCc2c1cnn2-c1ccccc1.O=C(O)C(=O)O`, the melting point (in general, the temperature, or range, at which the solid turns liquid) lay in the range of 217 to 218 °C.

In the case of `C(/CN1CCC(c2ccccc2)C1)=C1/CCCc2c1cnn2-c1ccccc1.O=C(O)C(=O)O` (stereo not drawn), the melting point lay in the range of 178 to 181 °C.

In turn, `C(/CN1Cc2ccccc2C1)=C1/CCCc2c1cnn2-c1ccccc1` had a melting point of 130 to 131 °C.

Take `O=C(O)C(=O)O.c1ccc(N2CCN(CCC3CCCc4c3cnn4-c3ccccc3)CC2)cc1` (stereo not drawn): the melting point lay in the range of 177 to 180 °C.

`O=C(O)C(=O)O.c1ccc(CN2CCN(CCC3CCc4c3cnn4-c3ccccc3)CC2)cc1` (stereo not drawn) registered a melting point of 215 to 218 °C.

Compound `Cn1ncc2c1CCCC2CCN1CCOCC1.O=C(O)C(=O)O` (stereo not drawn) registered a melting point of 137.7 to 139.3 °C.

`Fc1ccc(-n2ncc3c2CCCC3CCN2Cc3ccccc3C2)cc1.O=C(O)C(=O)O` (stereo not drawn) gave a melting point of 176 to 179 °C.

The compound `c1ccc(-n2ncc3c2CCCC3CCN2CCOCC2)cc1` (stereo not drawn) (as salt: oxalate) [Example 2, 4,5,6,7-tetrahydro-4-(2-(morpholin-4-yl)ethyl)-1-phenyl-1H-indazole oxalate] gave a melting point of 150 to 151 °C.

For `Clc1ccc(-n2ncc3c2CCCC3CCN2CCC(c3ccccc3)CC2)cc1Cl` (stereo not drawn) (as salt: oxalate) [Example 4, 1-(3,4-dichlorophenyl)-4,5,6,7-tetrahydro-4-(2-(4-phenylpiperidin-1-yl)ethyl)-1H-indazole oxalate], the melting point lay in the range of 133 to 134 °C.

On to `O=C(O)C(=O)O.c1ccc(-n2ncc3c2CCCC3CCN2CCOCC2)cc1` (single isomer, unassigned; (+)) [Example 74, (+)-4,5,6,7-tetrahydro-4-(2-(morpholin-4-yl)ethyl)-1-phenyl-1H-indazole oxalate], for which the melting point is 175 to 176 °C.

With `Clc1ccc(-n2ncc3c2CCCC3CCN2CCC(c3ccccc3)CC2)cc1Cl` (stereo not drawn) [Example 4, 1-(3,4-dichlorophenyl)-4,5,6,7-tetrahydro-4-(2-(4-phenylpiperidin-1-yl)ethyl)-1H-indazole oxalate], at σ1-receptor, the inhibition at 1 µM is 100% and the Ki (commonly the equilibrium dissociation constant of an inhibitor or competing ligand from its target) came out at 10.6 nM. Further, on σ2-receptor, the inhibition at 1 µM worked out at 98% and affinity was put at a Ki of 316 nM.

`C(/CN1CCOCC1)=C1/CCCc2c1cnn2-c1ccccc1` [Example 5, (E)-4,5,6,7-tetrahydro-4-(2-(morpholin-4-yl)ethylidene)-1-phenyl-1H-indazole] returned a melting point of 114 to 116 °C. Also, at σ1-receptor, the inhibition at 1 µM worked out at 94% and the Ki is 37.2 nM. Moreover, the inhibition at 1 µM at σ2-receptor came out at 39%.

Turning to `Clc1ccc(-n2ncc3c2CCCC3CCN2CCOCC2)cc1Cl.O=C(O)C(=O)O` (stereo not drawn) [Example 7, 1-(3,4-dichlorophenyl)-4,5,6,7-tetrahydro-4-(2-(morpholin-4-yl)ethyl)-1H-indazole oxalate], the melting point was in the range of 148 to 149.8 °C. Besides, at σ1-receptor, the inhibition at 1 µM came out at 100% and the Ki was 4.3 nM. Besides, the inhibition at 1 µM at σ2-receptor came out at 98.1%.

For `O=C(O)C(=O)O.c1ccc(C2CCN(CCC3CCCc4c3cnn4-c3ccccc3)CC2)cc1` (stereo not drawn) [Example 9, 4,5,6,7-tetrahydro-1-phenyl-4-(2-(4-phenylpiperidin-1-yl)ethyl)-1H-indazole oxalate], the melting point is 124 to 125 °C. Besides, on σ1-receptor, the inhibition at 1 µM worked out at 101% and the Ki worked out at 1.5 nM. Besides, on σ2-receptor, the inhibition at 1 µM is 107% and the Ki turned out to be 37.5 nM.

For the compound `c1ccc(CN2CCN(CCC3CCCc4c3cnn4-c3ccccc3)CC2)cc1` (stereo not drawn) [Example 10, 4-(2-(4-benzylpiperazin-1-yl)ethyl)-4,5,6,7-tetrahydro-1-phenyl-1H-indazole], the melting point was 98 to 101 °C. Besides, on σ1-receptor, the inhibition at 1 µM stood at 100% and the Ki was 6.1 nM. For the same compound, the inhibition at 1 µM at σ2-receptor stood at 70.2%.

For the compound `C(/CN1CCC(c2ccccc2)CC1)=C1/CCCc2c1cnn2-c1ccccc1` [Example 17, (E)-4,5,6,7-tetrahydro-1-phenyl-4-(2-(4-phenylpiperidin-1-yl)ethylidene)-1H-indazole], the values for the inhibition at 1 µM at σ1-receptor and on σ2-receptor were 100% and 83.8%, respectively. Also, the Ki turned out to be 2.5 nM at σ1-receptor and 186 nM at σ2-receptor.

With `C(/CN1CCC(c2ccccc2)C1)=C1/CCCc2c1cnn2-c1ccccc1` (stereo not drawn) [Example 24, (E)-4,5,6,7-tetrahydro-1-phenyl-4-(2-(3-phenylpyrrolidin-1-yl)ethylidene)-1H-indazole], at σ1-receptor, the inhibition at 1 µM is 100% and the Ki was 1.1 nM. In addition, on σ2-receptor, the inhibition at 1 µM worked out at 103% and the affinity corresponds to a Ki of 49.5 nM.

For the compound `C(/CN1CCCCC1)=C1/CCCc2c1cnn2-c1ccccc1` [Example 27, (E)-4,5,6,7-tetrahydro-1-phenyl-4-(2-(piperidin-1-yl)ethylidene)-1H-indazole], the inhibition at 1 µM turned out to be 99.6% on σ1-receptor and 77% on σ2-receptor. For the same compound, the Ki at σ1-receptor turned out to be 7.5 nM.

For the compound `c1ccc(-n2ncc3c2CCC3CCN2CCCCC2)cc1` (stereo not drawn) [Example 37, 1,4,5,6-tetrahydro-1-phenyl-4-(2-(piperidin-1-yl)ethyl)cyclopenta[c]pyrazole], on σ1-receptor, the inhibition at 1 µM is 102% and the Ki amounted to 1.1 nM. Also, at σ2-receptor, the inhibition at 1 µM came out at 79.9%.

For `c1ccc(-n2ncc3c2CCC3CCN2CCCC2)cc1` (stereo not drawn) [Example 40, 1,4,5,6-tetrahydro-1-phenyl-4-(2-(pyrrolidin-1-yl)ethyl)cyclopenta[c]pyrazole oxalate], on σ1-receptor, the inhibition at 1 µM was found to be 101% and the inhibitory constant (Ki) was found to be 3.5 nM. The inhibition at 1 µM on σ2-receptor stood at 97.3%.

As to `CN(CCC1CCc2c1cnn2-c1ccccc1)Cc1ccccc1` (stereo not drawn) [Example 52, N-benzyl-2-(1,4,5,6-tetrahydro-1-phenylcyclopenta[c]pyrazol-4-yl)-N-methylethanamine], on σ1-receptor, the inhibition at 1 µM stood at 106% and the inhibition constant Ki was determined as 3.9 nM. For the same compound, the inhibition at 1 µM at σ2-receptor came out at 104%.

Take `CN(CCC1CCCc2c1cnn2-c1ccccc1)Cc1ccccc1` (stereo not drawn) [Example 54, N-benzyl-2-(4,5,6,7-tetrahydro-1-phenyl-1H-indazol-4-yl)-N-methylethanamine]: the inhibition at 1 µM at σ1-receptor came out at 105%; on σ2-receptor, 100%. Further, the Ki on σ1-receptor was found to be 8.7 nM.

As to `Fc1ccc(-n2ncc3c2CCCC3CCN2CCOCC2)cc1.O=C(O)C(=O)O` (stereo not drawn) [Example 66, 1-(4-fluorophenyl)-4,5,6,7-tetrahydro-4-(2-(morpholin-4-yl)ethyl)-1H-indazole oxalate], the melting point lay in the range of 148 to 151 °C. For the same compound, on σ1-receptor, the inhibition at 1 µM came to 98.1% and the Ki is 2.4 nM.

For `CN(CCC1CCCc2c1cnn2-c1ccc(F)cc1)Cc1ccccc1` (stereo not drawn) [Example 69, N-benzyl-2-(1-(4-fluorophenyl)-4,5,6,7-tetrahydro-1H-indazol-4-yl)-N-methylethanamine], on σ1-receptor, the inhibition at 1 µM worked out at 103% and the Ki was determined as 2.6 nM. Moreover, at σ2-receptor, the inhibition at 1 µM was 99.3% and the affinity corresponds to a Ki of 21.7 nM.

With `Fc1ccc(-n2ncc3c2CCCC3CCN2Cc3ccccc3C2)cc1` (stereo not drawn) [Example 70, 1-(4-fluorophenyl)-4,5,6,7-tetrahydro-4-(2-(isoindolin-2-yl)ethyl)-1H-indazole], at σ1-receptor, the inhibition at 1 µM stood at 100% and the Ki was found to be 16.2 nM. For the same compound, on σ2-receptor, the inhibition at 1 µM was 108% and the Ki turned out to be 14.4 nM.

The compound `Fc1ccc(-n2ncc3c2CCCC3CCN2CCC(c3ccccc3)CC2)cc1` (stereo not drawn) [Example 72, 1-(4-fluorophenyl)-4,5,6,7-tetrahydro-4-(2-(4-phenylpiperidin-1-yl)ethyl)-1H-indazole] yielded a melting point of 93 to 94.5 °C.

For the compound `CC1CCN(CCC2CCCc3c2cnn3-c2ccccc2)CC1` (stereo not drawn) [Example 94, 4,5,6,7-Tetrahydro-4-(2-(4-methylpiperidin-1-yl)ethyl)-1-phenyl-1H-indazole oxalate], on σ1-receptor, the inhibition at 1 µM came out at 103% and the Ki turned out to be 1.9 nM.

In the case of `c1ccc(-n2ncc3c2CCC3CCN2CCSCC2)cc1` (stereo not drawn) [Example 97, 1,4,5,6-tetrahydro-1-phenyl-4-[2-(thiomorpholin-4-yl)ethyl]cyclopenta[c]pyrazole oxalate], at σ1-receptor, the inhibition at 1 µM came out at 102% and the Ki was found to be 0.62 nM.

Turning to `CC1CCN(CCC2CCc3c2cnn3-c2ccccc2)CC1` (stereo not drawn) [Example 99, 1,4,5,6-tetrahydro-4-(2-(4-methylpiperidin-1-yl)ethyl)-1-phenylcyclopenta[c]pyrazole oxalate], on σ1-receptor, the inhibition at 1 µM came to 102% and the Ki was 1.5 nM.
